PubChem BioAssay AID248 (DTP/NCI, 2004)
Toxic doses and inconclusive results are not listed. Rule as the data show it: active = T/C of 150% or more; inactive = T/C below 125%.

System: L1210 leukemia ip in BDF1 mice, survival T/C
Experiment: NCI In Vivo Anticancer Drug Screen. Data for tumor model L1210 Leukemia (intraperitoneal) in B6D2F1 (BDF1) mice
Details: endpoint: mean survival time, higher = longer survival
How it was run: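 Ratio derived from survival: compound-dosed mice over vehicle-dosed mice, all bearing a transplantable tumor.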

[1] = dose: 50.0 mg/kg/injection, schedule: Q01DX001 (ip), vehicle: saline
[2] = dose: 100.0 mg/kg/injection, schedule: Q01DX001 (ip), vehicle: saline
[3] = dose: 400.0 mg/kg/injection, schedule: Q01DX001 (ip), vehicle: saline
[4] = dose: 200.0 mg/kg/injection, schedule: Q01DX001 (ip), vehicle: saline
[5] = dose: 100.0 mg/kg/injection, schedule: Q01DX009 (ip), vehicle: saline with Tween-80
[6] = dose: 100.0 mg/kg/injection, schedule: Q04DX003 (ip), vehicle: Klucel (hydroxypropylcellulose) (HPC)
[7] = dose: 200.0 mg/kg/injection, schedule: Q01DX009 (ip), vehicle: saline with Tween-80
[8] = dose: 200.0 mg/kg/injection, schedule: Q04DX003 (ip), vehicle: Klucel (hydroxypropylcellulose) (HPC)
[9] = dose: 400.0 mg/kg/injection, schedule: Q01DX009 (ip), vehicle: saline with Tween-80
[10] = dose: 400.0 mg/kg/injection, schedule: Q04DX003 (ip), vehicle: Klucel (hydroxypropylcellulose) (HPC)
[11] = dose: 100.0 mg/kg/injection, schedule: Q04DX003 (ip), vehicle: saline
[12] = dose: 200.0 mg/kg/injection, schedule: Q04DX003 (ip), vehicle: saline
[13] = dose: 400.0 mg/kg/injection, schedule: Q04DX003 (ip), vehicle: saline
[14] = dose: 100.0 mg/kg/injection, schedule: Q01DX009 (ip), vehicle: Klucel (hydroxypropylcellulose) (HPC)
[15] = dose: 200.0 mg/kg/injection, schedule: Q01DX009 (ip), vehicle: Klucel (hydroxypropylcellulose) (HPC)
[16] = dose: 400.0 mg/kg/injection, schedule: Q01DX009 (ip), vehicle: Klucel (hydroxypropylcellulose) (HPC)
[17] = dose: 100.0 mg/kg/injection, schedule: Q04DX003 (ip), vehicle: saline with Tween-80
[18] = dose: 200.0 mg/kg/injection, schedule: Q04DX003 (ip), vehicle: saline with Tween-80

Measured: T/C

CCCCNC(C)(C)C(SS)c1ccc(Cl)cc1 (configuration not stated)
inactive: dose: 50.0 mg/kg/injection, schedule: Q01DX009 (ip), vehicle: other 94 % of control | dose: 100.0 mg/kg/injection, schedule: Q01DX009 (ip), vehicle: other 92 % of control

CCCCCCCCCCCCCC(CCCCCC)c1ccccc1 (configuration not stated)
inactive: dose: 100.0 mg/kg/injection, schedule: Q01DX001 (ip), vehicle: saline + alcohol 119 % of control | dose: 200.0 mg/kg/injection, schedule: Q01DX001 (ip), vehicle: saline + alcohol 106 % of control | dose: 400.0 mg/kg/injection, schedule: Q01DX001 (ip), vehicle: saline + alcohol 95 % of control

CCC(=O)N(CC)CC
inactive: [1] 102 % of control | [2] 93 % of control | [3] 93 % of control

Cc1cc(=O)[nH]c(N2CCCCC2)n1
inactive: [2] 111 % of control | [4] 95 % of control | [3] 101 % of control

Cc1cc(C)c(CCc2cc(C)c(C)cc2C)cc1C
inactive: [5] 93 % of control | [6] 104 % of control | [7] 92 % of control | [8] 93 % of control | [9] 87 % of control | [10] 109 % of control

CCOc1ccc(/C=N/NC(=O)c2ccc(O)c(OC)c2)cc1OC
inactive: [5] 103 % of control | [7] 92 % of control | [9] 96 % of control

CC1(C)CNC(C(=O)O)C1 (configuration not stated)
inactive: [5] 100 % of control | [11] 96 % of control | [7] 96 % of control | [12] 95 % of control | [13] 98 % of control

CCCCCCCCCC(=O)CCCCCC
inactive: [14] 96 % of control | [6] 95 % of control | [15] 98 % of control | [8] 103 % of control | [16] 107 % of control | [10] 93 % of control

ClCC1=NC2C(Cl)C(Cl)C(Cl)C(Cl)C2N1 (configuration not stated)
inactive: dose: 100.0 mg/kg/injection, schedule: Q04DX002 (ip), vehicle: Klucel (hydroxypropylcellulose) (HPC) 111 % of control | dose: 200.0 mg/kg/injection, schedule: Q04DX002 (ip), vehicle: Klucel (hydroxypropylcellulose) (HPC) 100 % of control | dose: 400.0 mg/kg/injection, schedule: Q04DX002 (ip), vehicle: Klucel (hydroxypropylcellulose) (HPC) 100 % of control

Cc1ccc(S(=O)(=O)c2ccc(F)cc2)cc1
inactive: [17] 104 % of control | [18] 95 % of control | dose: 400.0 mg/kg/injection, schedule: Q04DX003 (ip), vehicle: saline with Tween-80 97 % of control

Cc1ccc([N+](=O)[O-])cc1NC(=O)Nc1onc(C)c1C
inactive: dose: 50.0 mg/kg/injection, schedule: Q01DX009 (ip), vehicle: Klucel (hydroxypropylcellulose) (HPC) 90 % of control | [15] 87 % of control

CC(C)(C)C1CCCC(=O)C1 (configuration not stated)
inactive: [1] 101 % of control | [2] 89 % of control

CCOC(=O)C1CC2(OCCO2)c2c(OC)ccc(Cl)c2C1C (configuration not stated)
inactive: dose: 75.0 mg/kg/injection, schedule: Q01DX001 (ip), vehicle: saline 102 % of control | dose: 150.0 mg/kg/injection, schedule: Q01DX001 (ip), vehicle: saline 96 % of control | dose: 300.0 mg/kg/injection, schedule: Q01DX001 (ip), vehicle: saline 94 % of control

O=Cc1cc([N+](=O)[O-])ccc1Cl
inactive: dose: 50.0 mg/kg/injection, schedule: Q01DX009 (ip), vehicle: saline with Tween-80 101 % of control | [5] 100 % of control | [17] 96 % of control | [7] 95 % of control | [18] 97 % of control

O=C(O)/C=C/C(=O)Nc1cccc(Oc2ccc([N+](=O)[O-])cc2[N+](=O)[O-])c1
inactive: [11] 106 % of control | [12] 111 % of control | [13] 104 % of control

O=C(C[N+]12CC=C(CO)C1C(O)CC2)c1ccc(Br)cc1 (configuration not stated)
inactive: [2] 104 % of control | [4] 101 % of control

C=CCN(CC=C)P(=O)(N1CC1C)N1CC1C (configuration not stated)
inactive: dose: 1.0 mg/kg/injection, schedule: Q01DX009 (ip), vehicle: saline 124 % of control
active: dose: 3.0 mg/kg/injection, schedule: Q01DX009 (ip), vehicle: saline 172 % of control

CCOC(=O)C(C)(Br)C(Br)c1ccc([N+](=O)[O-])cc1 (configuration not stated)
inactive: [14] 96 % of control | [6] 101 % of control | [15] 93 % of control | [8] 101 % of control | [16] 98 % of control | [10] 108 % of control
